Data from ChEMBL document CHEMBL1137935 (Bioorg Med Chem Lett, 2004).
Activity calls are given as the source filed them. The calls are words filed in the database; no cut-off is given here.

Columns and labels:
[1] = molecular target: T1, Adenosine receptor A1 (Cavia porcellus) (UniProt P47745); assay: Binding affinity against adenosine A1 receptor using [3H]CPX in guinea pig DDT membrane; 604+/-241
T1 sequence (whole entry): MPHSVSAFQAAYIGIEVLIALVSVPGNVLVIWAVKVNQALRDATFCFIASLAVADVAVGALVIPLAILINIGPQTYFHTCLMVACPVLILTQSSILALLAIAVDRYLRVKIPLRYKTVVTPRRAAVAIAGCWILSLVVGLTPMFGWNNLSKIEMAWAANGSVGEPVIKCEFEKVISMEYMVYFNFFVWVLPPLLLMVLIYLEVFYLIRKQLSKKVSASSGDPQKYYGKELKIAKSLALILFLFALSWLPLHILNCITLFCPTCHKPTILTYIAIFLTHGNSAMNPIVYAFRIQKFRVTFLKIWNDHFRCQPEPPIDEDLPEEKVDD

[2] = molecular target: T1, Adenosine receptor A1 (Cavia porcellus); assay: Binding affinity against […] using [35S]GTP-gamma-S, radioligand in guinea pig.; format: functional
[3] = molecular target: T1, Adenosine receptor A1 (Cavia porcellus); assay: Binding affinity against adenosine A1 receptor using [3H]CCPA in guinea pig DDT membrane; 21+/-0
[4] = molecular target: T1, Adenosine receptor A1 (Cavia porcellus); assay: Binding affinity against adenosine A1 receptor using [3H]CPX in guinea pig DDT membrane; 158+/-21
[5] = molecular target: T1, Adenosine receptor A1 (Cavia porcellus)
[6] = molecular target: T1, Adenosine receptor A1 (Cavia porcellus); assay: Binding affinity against adenosine A1 receptor using [3H]CCPA in guinea pig DDT membrane; format: cell membranes
[7] = tested on: Adenosine receptor A1 (Cavia porcellus); assay: Binding affinity against […] using [35S]GTP-gamma-S, in guinea pig; not active
[8] = molecular target: T1, Adenosine receptor A1 (Cavia porcellus); assay: Binding affinity against adenosine A1 receptor using [3H]CPX in guinea pig DDT membrane; 6250+/-1767
[9] = molecular target: T1, Adenosine receptor A1 (Cavia porcellus); assay: Binding affinity against adenosine A1 receptor using [3H]CCPA in guinea pig DDT membrane; 2400+/-16
[10] = molecular target: T1, Adenosine receptor A1 (Cavia porcellus); assay: Binding affinity against adenosine A1 receptor using [3H]CPX in guinea pig DDT membrane; 5855+/-1208
[11] = molecular target: T1, Adenosine receptor A1 (Cavia porcellus); assay: Binding affinity against adenosine A1 receptor using [3H]CCPA in guinea pig DDT membrane; 243+/-107
[12] = molecular target: T1, Adenosine receptor A1 (Cavia porcellus); assay: Binding affinity against adenosine A1 receptor using [3H]CPX in guinea pig DDT membrane; 503+/-262
[13] = molecular target: T1, Adenosine receptor A1 (Cavia porcellus); assay: Binding affinity against adenosine A1 receptor using [3H]CPX in guinea pig DDT membrane; format: cell membranes
[14] = molecular target: T1, Adenosine receptor A1 (Cavia porcellus); assay: Binding affinity against adenosine A1 receptor using [3H]CCPA in guinea pig DDT membrane; 2.73+/-0.49
[15] = molecular target: T1, Adenosine receptor A1 (Cavia porcellus); remark: listed apart in the source
[16] = molecular target: T1, Adenosine receptor A1 (Cavia porcellus); remark: listed apart in the source
[17] = molecular target: T1, Adenosine receptor A1 (Cavia porcellus); assay: Binding affinity against adenosine A1 receptor using [3H]CPX in guinea pig DDT membrane; 913+/-517
[18] = molecular target: T1, Adenosine receptor A1 (Cavia porcellus); remark: listed apart in the source
[19] = molecular target: T1, Adenosine receptor A1 (Cavia porcellus); assay: Binding affinity against adenosine A1 receptor using [3H]-CPX in guinea pig DDT membrane; 4191+/-922
[20] = molecular target: T1, Adenosine receptor A1 (Cavia porcellus); assay: Binding affinity against adenosine A1 receptor using [3H]CPX in guinea pig DDT membrane; 1571+/-245
[21] = molecular target: T1, Adenosine receptor A1 (Cavia porcellus); assay: Binding affinity against adenosine A1 receptor using [3H]-CCPA in guinea pig DDT membrane; 180+/-23
[22] = molecular target: T1, Adenosine receptor A1 (Cavia porcellus); assay: Binding affinity against adenosine A1 receptor using [3H]CCPA in guinea pig DDT membrane; 7.5+/-1.9
[23] = molecular target: T1, Adenosine receptor A1 (Cavia porcellus); assay: Binding affinity against adenosine A1 receptor using [3H]CCPA in guinea pig DDT membrane; 102+/-45
[24] = molecular target: T1, Adenosine receptor A1 (Cavia porcellus); assay: Binding affinity against adenosine A1 receptor using [3H]CPX in guinea pig DDT membrane; 614+/-78

OC1[C@@H](O)C(n2cnc3c(NC4CCOC4)ncnc32)O[C@@H]1COc1cccc(F)c1 (single isomer, unassigned)
Ki low [1]: 604 nM | efficacy relative to CPA [2]: 70%

OC1[C@@H](O)C(n2cnc3c(NC4CCOC4)ncnc32)O[C@@H]1CSc1nccs1 (single isomer, unassigned)
Ki high [3]: 21 nM | efficacy relative to CPA [2]: 106% | Ki low [4]: 158 nM

O[C@@H]1[C@@H](CSc2ccccc2F)OC(n2cnc3c(NC4CCCC4)ncnc32)[C@@H]1O (stereo not given in full)
Ki low [5]: 287 nM | Ki high [6]: 33 nM | efficacy relative to CPA [2]: 90%

OC1[C@@H](O)C(n2cnc3c(NC4CCOC4)ncnc32)O[C@@H]1CSc1ccccc1C(F)(F)F (single isomer, unassigned)
CPA [7]: inactive | Ki low [8]: 6250 nM | Ki high [9]: 2400 nM

Cc1cccc(C)c1SC[C@H]1OC(n2cnc3c(NC4CCOC4)ncnc32)[C@H](O)C1O (single isomer, unassigned)
Ki low [10]: 5860 nM | Ki high [11]: 243 nM | efficacy relative to CPA [2]: 12%

Cc1ccccc1OC[C@H]1OC(n2cnc3c(NC4CCOC4)ncnc32)[C@H](O)C1O (single isomer, unassigned)
Ki low [12]: 503 nM | efficacy relative to CPA [2]: 61%

Cc1cc(COC[C@H]2OC(n3cnc4c(NC5CCOC5)ncnc43)[C@H](O)C2O)no1 (single isomer, unassigned)
Ki low [13]: 192 nM | Ki high [14]: 2.73 nM | efficacy relative to CPA [2]: 84%

Cc1csc(SC[C@H]2OC(n3cnc4c(NC5CCOC5)ncnc43)[C@H](O)C2O)n1 (single isomer, unassigned)
Ki low [13]: > 5000 nM | efficacy relative to CPA [2]: 86%

CNC(=O)OC[C@H]1OC(n2cnc3c(NC4CCOC4)ncnc32)[C@H](O)C1O (single isomer, unassigned)
Ki high [15]: 167 nM | Ki low [16]: 3610 nM

OC1[C@@H](O)C(n2cnc3c(NC4CCOC4)ncnc32)O[C@@H]1CSc1ncccn1 (single isomer, unassigned)
Ki low [17]: 913 nM | efficacy relative to CPA [2]: 89%

OC1[C@@H](O)C(n2cnc3c(NC4CCOC4)ncnc32)O[C@@H]1CSc1ccccn1 (single isomer, unassigned)
efficacy relative to CPA [2]: 110% | Ki low [18]: 894 nM

Cn1ccnc1SC[C@H]1OC(n2cnc3c(NC4CCOC4)ncnc32)[C@H](O)C1O (single isomer, unassigned)
Ki low [19]: 4190 nM | efficacy relative to CPA [2]: 84%

OC1[C@@H](O)C(n2cnc3c(NC4CCOC4)ncnc32)O[C@@H]1CSc1cccc(F)c1 (single isomer, unassigned)
Ki low [20]: 1570 nM | Ki high [21]: 180 nM | efficacy relative to CPA [2]: 84%

OC1[C@@H](O)C(n2cnc3c(NC4CCOC4)ncnc32)O[C@@H]1COCc1ccccc1 (single isomer, unassigned)
Ki low [13]: 165 nM | Ki high [22]: 7.5 nM | efficacy relative to CPA [2]: 98%

O[C@@H]1[C@@H](COc2ccccc2F)OC(n2cnc3c(NC4CCCC4)ncnc32)[C@@H]1O (stereo not given in full)
Ki low [13]: 4390 nM | CPA [7]: inactive

OC1[C@@H](O)C(n2cnc3c(NC4CCOC4)ncnc32)O[C@@H]1CSc1c(Cl)cccc1Cl (single isomer, unassigned)
Ki high [23]: 102 nM | Ki low [24]: 614 nM | efficacy relative to CPA [2]: 89%
